In US10815224B2, “Monocyclic heteroaryl substituted compounds” (Bristol-Myers Squibb Company, priority 2016, dated 2020):

Molecular target: T1, PAR4 (Homo sapiens, UniProt Q96RI0)
T1 construct: expressed in transfected cells; host or cells: HEK293 PAR4 Clone 1.2A (BMS Arctic ID 383940)
T1 sequence (Q96RI0 18-385): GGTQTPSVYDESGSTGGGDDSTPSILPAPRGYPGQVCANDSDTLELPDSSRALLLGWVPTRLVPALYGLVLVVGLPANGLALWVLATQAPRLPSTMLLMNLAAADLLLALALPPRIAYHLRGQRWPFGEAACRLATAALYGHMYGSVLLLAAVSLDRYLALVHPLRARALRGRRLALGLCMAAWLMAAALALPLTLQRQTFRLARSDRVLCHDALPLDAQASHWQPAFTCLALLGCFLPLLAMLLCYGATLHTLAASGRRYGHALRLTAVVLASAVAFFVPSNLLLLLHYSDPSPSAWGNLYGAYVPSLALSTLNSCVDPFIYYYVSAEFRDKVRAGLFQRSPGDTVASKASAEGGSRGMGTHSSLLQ
Assay: PAR4 FLIPR assay: calcium mobilization in PAR4-expressing HEK293 cells
Type: cell-based
Excerpt: The FLIPR assay is an exemplary in vitro assay for measuring the activity of the PAR4 antagonists of the present invention. In this assay, intracellular calcium mobilization is induced in PAR4 expressing cells by a PAR4 agonist and calcium mobilization is monitored.
HEK293 cells stably expressing PAR4 were generated by a standard method of transfection of human PAR4 (F2R23) cDNA expression vector and selected based on PAR4 protein expression or mRNA expression. […] Therefore, the same cells were also used to determine selectivity against PAR1 and agonist activity for both receptors.
FLIPR-based calcium mobilization assay in HEK293 cells was used to measure PAR4 antagonism, agonism, and selectivity against PAR1. […] Counter screens for agonist activity and PAR1 antagonist activity were also performed. […] Cells were plated overnight prior to the experiment in a black 384-well Purecoat Amine clear bottom plate (Becton Dickinson Biosciences, San Jose, Calif.) at 10,000 cells/well in 30 μL growth medium and incubated in a humidified chamber at 37° C. with 5% CO2 overnight. Prior to compound addition, the cell medium was replaced with 40 μL of 1× calcium and magnesium-containing Hank's Balanced Saline Solution (HBSS) (with 20 mM HEPES) and 1:1000 diluted fluorescent calcium indicator (Codex Biosolutions, Gaithersburg, Md.). After a 30 minute incubation period at 37° C., and a further 30 minute incubation and equilibration period at room temperature, 20 μL test compound (diluted in 1×HBSS buffer) was added at various concentrations at 0.17% dimethyl sulfoxide (DMSO) final concentration. Changes in fluorescence intensity were measured using a Functional Drug Screening System (FDSS, Hamamatsu, Japan) to determine agonist activities. The cells were then incubated for 30 minutes at room temperature followed by addition of 20 μL of agonist peptide for antagonist activity measurement. […] Compound potency was derived from 11-point concentration-response curves.

SMILES | IC50 [nM]
COc1cnc2c(-c3cc(-c4ccccc4)no3)cc(C)cc2n1 [Example 1, 5-(2-methoxy-7-methylquinoxalin-5-yl)-3-phenylisoxazole] | 80
Cc1cc(-c2cnn(-c3ccccc3)c2)c2ncc(OC(F)F)nc2c1 [Example 2, 2-(difluoromethoxy)-7-methyl-5-(1-phenyl-1H-pyrazol-4-yl)quinoxaline] | 790
Cc1cc(-c2cnc(-c3ccccc3)s2)c2ncc(OC(F)F)nc2c1 [Example 3, 5-(2-(difluoromethoxy)-7-methylquinoxalin-5-yl)-2-phenylthiazole] | 330
Cc1cc(-c2ncc(C)s2)c2ncc(OC(F)F)nc2c1 [Example 4, 2-(2-(difluoromethoxy)-7-methylquinoxalin-5-yl)-5-methylthiazole] | 520
Cc1cc(-c2ccsn2)c2ncc(OC(F)F)nc2c1 [Example 5, 3-(2-(difluoromethoxy)-7-methylquinoxalin-5-yl)isothiazole] | 940
Cc1cc(-c2nc(C)c(-c3cccc(O)c3)s2)c2ncc(OC(F)F)nc2c1 [Example 6, 3-(2-(2-(difluoromethoxy)-7-methylquinoxalin-5-yl)-4-methylthiazol-5-yl)phenol] | 1
Cc1cc(-c2ncc(Cc3ccccc3)s2)c2ncc(OC(F)F)nc2c1 [Example 7, 5-benzyl-2-(2-(difluoromethoxy)-7-methylquinoxalin-5-yl)thiazole] | 95
C=Cc1csc(-c2cc(C)cc3nc(OC(F)F)cnc23)n1 [Example 8, 2-(2-(difluoromethoxy)-7-methylquinoxalin-5 yl)-4-vinylthiazole] | 100
Cc1cc(-c2nc(C)c(-c3ccn[nH]3)s2)c2ncc(OC(F)F)nc2c1 [Example 9, 2-(2-(difluoromethoxy)-7-methylquinoxalin-5-yl)-4-methyl-5-(1H-pyrazol-5-yl)thiazole] | 5
Cc1cc(-c2nc(C3CC3)cs2)c2ncc(OC(F)F)nc2c1 [Example 10, 4-cyclopropyl-2-(2-(difluoromethoxy)-7-methylquinoxalin-5-yl)thiazole] | 300
Cc1cc(-c2nc(C)c(-c3cc(F)ccc3O)s2)c2ncc(OC(F)F)nc2c1 [Example 11, 2-(2-(2-(difluoromethoxy)-7-methylquinoxalin-5-yl)-4-methylthiazol-5-yl)-4-fluoropheno] | 7.5
Cc1cc(-c2nc(C)c(-c3c(O)cccc3F)s2)c2ncc(OC(F)F)nc2c1 [Example 12, 2-(2-(2-(difluoromethoxy)-7-methylquinoxalin-5-yl)-4-methylthiazol-5-yl)-3-fluoropheno] | 8.1
Cc1cc(-c2ncc(N3CCCCC3)s2)c2ncc(OC(F)F)nc2c1 [Example 13, 2-(2-(difluoromethoxy)-7-methylquinoxalin-5-yl)-5-(piperidin-1-yl)thiazole] | 12
Cc1cc(-c2ncc(-c3cncc(O)c3)s2)c2ncc(OC(F)F)nc2c1 [Example 14, 5-(2-(2-(difluoromethoxy)-7-methylquinoxalin-5-yl)thiazol-5-yl)pyridin-3-ol] | 170
Cc1cc(-c2nc(C)c(-c3ccccc3O)s2)c2ncc(OC(F)F)nc2c1 [Example 15, 2-(2-(2-(difluoromethoxy)-7-methylquinoxalin-5-yl)-4-methylthiazol-5-yl)phenol] | 5.9
Cc1cc(-c2ncc(-c3ccccc3C(F)(F)F)s2)c2ncc(OC(F)F)nc2c1 [Example 16, 2-(2-(difluoromethoxy)-7-methylquinoxalin-5-yl)-5-(2-(trifluoromethyl)phenyl)thiazole] | 110
Cc1cc(-c2ncc(C3CCCCC3)s2)c2ncc(OC(F)F)nc2c1 [Example 17, 5-cyclohexyl-2-(2-(difluoromethoxy)-7-methylquinoxalin-5-yl)thiazole] | 75

SMILES | IC50 [nM]
COCc1cnc2c(-c3ncc(-c4ccccc4)s3)cc(C)cc2n1 [Example 18, 2-(2-(methoxymethyl)-7-methylquinoxalin-5-yl)-5-phenylthiazole] | 6.2
Cc1cc(-c2ncc(-c3cccc(F)c3O)s2)c2ncc(OC(F)F)nc2c1 [Example 19, 2-(2-(2-(difluoromethoxy)-7-methylquinoxalin-5-yl)thiazol-5-yl)-6-fluorophenol] | 5.9
Cc1ccc(O)c(-c2cnc(-c3cc(C)cc4nc(OC(F)F)cnc34)s2)c1 [Example 20, 2-(2-(2-(difluoromethoxy)-7-methylquinoxalin-5-yl)thiazol-5-yl)-4-methylphenol] | 31
Cc1cc(-c2ncc(-c3cc(F)ccc3O)s2)c2ncc(OC(F)F)nc2c1 [Example 21, 2-(2-(2-(difluoromethoxy)-7-methylquinoxalin-5-yl)thiazol-5-yl)-4-fluorophenol] | 8.8
Cc1cc(-c2ncc(-c3cc(Cl)ccc3O)s2)c2ncc(OC(F)F)nc2c1 [Example 22, 2-(2-(2-(difluoromethoxy)-7-methylquinoxalin-5-yl)thiazol-5-yl)-4-chlorophenol] | 18
Cc1cc(-c2ncc(-c3cccc(Cl)c3O)s2)c2ncc(OC(F)F)nc2c1 [Example 23, 2-(2-(2-(difluoromethoxy)-7-methylquinoxalin-5-yl)thiazol-5-yl)-6-chlorophenol] | 14
Cc1cc(-c2ncc(-c3c(O)cccc3F)s2)c2ncc(OC(F)F)nc2c1 [Example 24, 2-(2-(2-(difluoromethoxy)-7-methylquinoxalin-5-yl)thiazol-5-yl)-3-fluorophenol] | 8.3
Cc1cc(-c2ncc(-c3cc(O)ccc3F)s2)c2ncc(OC(F)F)nc2c1 [Example 25, 3-(2-(2-(difluoromethoxy)-7-methylquinoxalin-5-yl)thiazol-5-yl)-4-fluorophenol] | 15
Cc1cc(-c2ncc(-c3cc(O)cc(F)c3)s2)c2ncc(OC(F)F)nc2c1 [Example 26, 3-(2-(2-(difluoromethoxy)-7-methylquinoxalin-5-yl)thiazol-5-yl)-5-fluorophenol] | 23
Cc1cc(-c2ncc(-c3cc(O)ccc3OC(F)(F)F)s2)c2ncc(OC(F)F)nc2c1 [Example 27] | 20
Cc1cc(-c2ncc(-c3ccccc3)s2)c2ncc(OC(F)F)nc2c1 [Example 28, 2-(2-(difluoromethoxy)-7-methylquinoxalin-5-yl)-5-phenyl thiazole] | 43
Cc1cc(-c2ncc(-c3cccnc3)s2)c2ncc(OC(F)F)nc2c1 [Example 29, 2-(2-(difluoromethoxy)-7-methylquinoxalin-5-yl)-5-(pyridin-3-yl)thiazole] | 60
Cc1cc(-c2ncc(-c3ccccc3O)s2)c2ncc(OC(F)F)nc2c1 [Example 30, 2-(2-(2-(difluoromethoxy)-7-methylquinoxalin-5-yl)thiazol-5-yl)phenol] | 8.8
CCNC(=O)c1cnc(-c2cc(C)cc3nc(OC)cnc23)s1 [Example 31, N-ethyl-2-(2-methoxy-7-methylquinoxalin-5-yl)thiazole-5-carboxamide] | 450
COc1ccc(NC(=O)c2csc(-c3cc(C)cc4nc(OC(F)F)cnc34)n2)cc1 [Example 32, 2-(2-(difluoromethoxy)-7-methylquinoxalin-5-yl)-N-(4-methoxyphenyl)thiazole-4-carboxamide] | 2300
Cc1cc(-c2nc(C(=O)N3CCC(CO)CC3)cs2)c2ncc(OC(F)F)nc2c1 [Example 33, (2-(2-(difluoromethoxy)-7-methylquinoxalin-5-yl)thiazol-4-yl)(4-(hydroxymethyl)piperidin-1-yl)methanone] | 570
